From patent US9409952B2, “Peptide-compound cyclization method” (Chugai Seiyaku Kabushiki Kaisha, priority 2011, dated 2016)
Positions of bridges follow the written chain, without caps; N, C: chain ends. Non-standard residues stand in square brackets, D forms with d. Residues, ends and D or L forms follow the SMILES beside them. *: point of attachment. NMeF = CN[C@@H](Cc1ccccc1)C(=O)O; NMeI = CC[C@H](C)[C@H](NC)C(=O)O; NMeL = CN[C@@H](CC(C)C)C(=O)O; Phg = N[C@H](C(=O)O)c1ccccc1; NMeV = CN[C@H](C(=O)O)C(C)C; NMeA = CN[C@@H](C)C(=O)O; Piperidide = C1CCN(*)CC1; dNMeA = CN[C@H](C)C(=O)O; Aib = CC(C)(N)C(=O)O; Sar = CNCC(=O)O; tBu = CC(C)(C)*

Key:
[1] = PAMPA (parallel artificial membrane permeability assay); assay type: in vitro ADME; settings: membrane permeation rate (Pe), 50 mM MOPSO buffer pH 6.5 with 5.0% glycocholic acid, 37° C., 18 hours; for Papp at 18 hours, 50 µM: PAMPA, read-out: iPAMPA Pe
Summary of the method: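 Artificial membrane was 10% (w/v) egg lecithin plus 0.5% (w/v) cholesterol in dodecane on a PVDF filter. A 10 mM DMSO stock was added at 0.5% (v/v) to donor buffer (50 mM MOPSO, pH 6.5, 5.0% glycocholic acid). After 18 h at 37 °C, LC/MS or LC/UV gave donor and acceptor levels for Pe.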

[2] = Metabolic stability in human hepatic microsome; assay type: in vitro ADME; settings: microsomes, pH 7.4; human hepatic microsome, NADPH(+); read-out: CL NADPH(+)

Row | SMILES | Papp at 18 hours, 50 µM [1] [×10⁻⁶ cm/s] | microsomal CLint at 1 uM [2] [µL/min/mg] | iPAMPA Pe [1]
1 | CC(C)C[C@@H]1NC(=O)[C@H](CC(C)C)NC(=O)[C@H](C)N(C)C(=O)C[C@@H](C(=O)N2CCCCC2)NC(=O)[C@H](C(C)C)N(C)C(=O)[C@H](CC(C)C)NC(=O)[C@H](Cc2ccccc2)NC(=O)[C@H]([C@@H](C)O)NC(=O)CN(C)C(=O)[C@H](CC(C)C)NC(=O)[C@H](c2ccccc2)NC1=O [DP-561] ([NMeA]LL[Phg]L[Sar]TFL[NMeV]D-Piperidide; lactam N-11) | 24 | 48 | 
2 | CC(C)C[C@H]1C(=O)NCC(=O)N[C@H](C(=O)N2CCCCC2)CC(=O)N[C@@H](c2ccccc2)C(=O)N[C@@H]([C@@H](C)O)C(=O)N(C)[C@@H](C)C(=O)N(C)[C@@H](Cc2ccccc2)C(=O)N(C)[C@@H](Cc2ccccc2)C(=O)N[C@@H](COC(C)(C)C)C(=O)N1C [DP-563] ([Phg]T[NMeA][NMeF][NMeF]S(tBu)[NMeL]GD-Piperidide; lactam N-9) | 35 | 111 | 
3 | CC[C@H](C)[C@H]1C(=O)NCC(=O)N(C)[C@@H](CC(C)C)C(=O)N[C@@H]([C@@H](C)O)C(=O)N2CCC[C@H]2C(=O)NC(C)(C)C(=O)N[C@H](C(=O)N2CCCCC2)CC(=O)N(C)[C@@H](C)C(=O)N[C@@H](Cc2ccccc2)C(=O)N(C)[C@@H](CC(C)C)C(=O)N[C@@H](CC(C)C)C(=O)N1C [DP-564] ([NMeA]F[NMeL]L[NMeI]G[NMeL]TP[Aib]D-Piperidide; lactam N-11) | 27 | 80 | 
4 | CC(C)C[C@@H]1NC(=O)[C@H](Cc2ccccc2)N(C)C(=O)CN(C)C(=O)[C@H]([C@@H](C)O)NC(=O)[C@H](CC(C)C)N(C)C(=O)[C@H](C)NC(=O)C[C@@H](C(=O)N(C)[C@@H](Cc2ccccc2)C(=O)N(C)[C@@H](C)C(=O)N2CCC[C@H]2C(=O)N(C)[C@@H](Cc2ccccc2)C(=O)N[C@@H](C)C(=O)N2CCCCC2)NC1=O [DP-565] (A[NMeL]T[Sar][NMeF]LD[NMeF][NMeA]P[NMeF]A-Piperidide; lactam N-7) | 18 | 56 | 
5 | CC(C)C[C@@H]1NC(=O)[C@H](Cc2ccccc2)N(C)C(=O)CN(C)C(=O)[C@H]([C@@H](C)O)NC(=O)[C@H](CC(C)C)N(C)C(=O)[C@H](C)NC(=O)C[C@@H](C(=O)N(C)[C@@H](CC(C)C)C(=O)N[C@H](C(=O)N(C)[C@@H](C)C(=O)N[C@@H](C)C(=O)N2CCCCC2)C(C)C)NC1=O [DP-566] (A[NMeL]T[Sar][NMeF]LD[NMeL]V[NMeA]A-Piperidide; lactam N-7) | 11 | 38 | 
6 | CC[C@H](C)[C@H](NC(=O)[C@H](Cc1ccccc1)N(C)C(=O)[C@@H]1CC(=O)N[C@@H](C)C(=O)N(C)[C@@H](CC(C)C)C(=O)N[C@@H]([C@@H](C)O)C(=O)N(C)CC(=O)N(C)[C@@H](Cc2ccccc2)C(=O)N[C@@H](CC(C)C)C(=O)N1)C(=O)N1CCCCC1 [DP-567] (A[NMeL]T[Sar][NMeF]LD[NMeF]I-Piperidide; lactam N-7) | 30 | 224 | 
7 | CC[C@H](C)[C@@H]1NC(=O)[C@H](Cc2ccccc2)N(C)C(=O)[C@@H](C)NC(=O)C[C@@H](C(=O)N(C)[C@@H](CC(C)C)C(=O)NCC(=O)N(C)[C@@H](CC(C)C)C(=O)N[C@@H](C)C(=O)N2CCCCC2)NC(=O)[C@H](C(C)C)NC(=O)CN(C)C(=O)[C@H]([C@@H](C)O)NC1=O [DP-568] ([dA][NMeF]IT[Sar]VD[NMeL]G[NMeL]A-Piperidide; lactam N-7) | 4.4 | 30 | 
8 | CC[C@H](C)[C@@H]1NC(=O)[C@H](Cc2ccccc2)N(C)C(=O)[C@@H](C)NC(=O)C[C@@H](C(=O)N(C)[C@@H](Cc2ccccc2)C(=O)N(C)[C@@H](Cc2ccccc2)C(=O)N[C@@H](C)C(=O)N2CCCCC2)NC(=O)[C@H](C(C)C)NC(=O)CN(C)C(=O)[C@H]([C@@H](C)O)NC1=O [DP-569] ([dA][NMeF]IT[Sar]VD[NMeF][NMeF]A-Piperidide; lactam N-7) | 21 | 203 | 
9 | CC(C)C[C@H](NC(=O)CN(C)C(=O)[C@@H]1CC(=O)N[C@H](C)C(=O)N[C@@H](C(C)C)C(=O)N(C)[C@@H](Cc2ccccc2)C(=O)N(C)[C@@H](CC(C)C)C(=O)N(C)[C@@H](C)C(=O)N[C@@H]([C@@H](C)O)C(=O)N[C@@H](Cc2ccccc2)C(=O)N1)C(=O)N1CCCCC1 [DP-571] ([dA]V[NMeF][NMeL][NMeA]TFD[Sar]L-Piperidide; lactam N-8) | 23 | 62 | 
10 | CC[C@H](C)[C@H](NC(=O)[C@H](Cc1ccccc1)N(C)C(=O)[C@@H]1CC(=O)N[C@@H](C)C(=O)N[C@@H](CC(C)C)C(=O)N(C)[C@@H]([C@@H](C)CC)C(=O)N[C@@H](C(C)C)C(=O)N(C)[C@@H](Cc2ccccc2)C(=O)N[C@@H](CC(C)C)C(=O)N(C)[C@@H](Cc2ccccc2)C(=O)N1)C(=O)N1CCCCC1 [DP-573] (AL[NMeI]V[NMeF]L[NMeF]D[NMeF]I-Piperidide; lactam N-8) |  | 72 | 1.0E−07
11 | CC(C)C[C@@H]1NC(=O)[C@H](C)NC(=O)C[C@@H](C(=O)N(C)[C@@H](C)C(=O)N[C@H](C(=O)N(C)[C@@H](Cc2ccccc2)C(=O)N(C)[C@@H](CC(C)C)C(=O)N[C@@H](C)C(=O)N2CCCCC2)[C@@H](C)O)NC(=O)[C@H](Cc2ccccc2)N(C)C(=O)[C@H](CC(C)C)N(C)C(=O)[C@H](C)NC(=O)[C@H](Cc2ccccc2)N(C)C(=O)[C@H](CC(C)C)N(C)C1=O [DP-574] (AL[NMeL][NMeF]A[NMeL][NMeF]D[NMeA]T[NMeF][NMeL]A-Piperidide; lactam N-8) | 1.2 | 113 | 
12 | CC(C)C[C@@H](C(=O)N[C@@H](C)C(=O)N1CCCCC1)N(C)C(=O)[C@@H]1CC(=O)N[C@H](C(C)C)C(=O)N[C@@H]([C@@H](C)O)C(=O)N(C)[C@@H](C)C(=O)N(C)[C@@H](Cc2ccccc2)C(=O)N(C)[C@@H](Cc2ccccc2)C(=O)N[C@@H](COC(C)(C)C)C(=O)N(C)[C@@H](CC(C)C)C(=O)NCC(=O)N1 [DP-575] ([dV]T[NMeA][NMeF][NMeF]S(tBu)[NMeL]GD[NMeL]A-Piperidide; lactam N-9) | 28 | 70 | 
13 | CC[C@H](C)[C@H](NC(=O)[C@H](CC(C)C)N(C)C(=O)CN(C)C(=O)[C@@H]1CC(=O)N[C@H](C(C)C)C(=O)N[C@@H](C)C(=O)N[C@@H]([C@@H](C)O)C(=O)N(C)[C@@H](C)C(=O)N[C@@H](Cc2ccccc2)C(=O)N(C)[C@@H](CC(C)C)C(=O)N(C)[C@@H](Cc2ccccc2)C(=O)N(C)[C@@H](CC(C)C)C(=O)N1)C(=O)N1CCCCC1 [DP-576] ([dV]AT[NMeA]F[NMeL][NMeF][NMeL]D[Sar][NMeL]I-Piperidide; lactam N-9) | 15 | 17 | 
14 | CC(C)C[C@H](NC(=O)[C@@H](NC(=O)[C@@H]1CCCN1C(=O)[C@@H]1CC(=O)N[C@H](C)C(=O)N(C)[C@@H](C)C(=O)N(C)[C@@H](Cc2ccccc2)C(=O)N(C)[C@@H](CC(C)C)C(=O)N[C@@H]([C@@H](C)O)C(=O)N(C)CC(=O)N(C)[C@@H](CC(C)C)C(=O)N[C@@H](COC(C)(C)C)C(=O)N(C)[C@@H](CC(C)C)C(=O)N1)C(C)C)C(=O)N1CCCCC1 [DP-579] ([dA][NMeA][NMeF][NMeL]T[Sar][NMeL]S(tBu)[NMeL]DPVL-Piperidide; lactam N-10) | 24 | 19 | 
15 | CC[C@H](C)[C@@H]1NC(=O)[C@H](Cc2ccccc2)N(C)C(=O)[C@H](CC(C)C)NC(=O)[C@H](CC(C)C)NC(=O)[C@H](Cc2ccccc2)NC(=O)[C@H](CC(C)C)NC(=O)[C@@H](C)NC(=O)C[C@@H](C(=O)N(C)[C@@H](C)C(=O)N[C@@H](CC(C)C)C(=O)N[C@@H](C)C(=O)N[C@H](C(=O)N2CCCCC2)[C@@H](C)CC)NC(=O)[C@H](Cc2ccccc2)NC(=O)[C@H]([C@@H](C)O)NC1=O [DP-580] ([dA]LFLL[NMeF]ITFD[NMeA]LAI-Piperidide; lactam N-10) | 0.13 | 54 | 
16 | CC[C@H](C)[C@@H]1NC(=O)[C@H](CC(C)C)N(C)C(=O)CN(C)C(=O)[C@H](Cc2ccccc2)NC(=O)[C@H](C(C)C)N(C)C(=O)[C@H](C)N(C)C(=O)[C@H]([C@@H](C)O)NC(=O)[C@H](C)N(C)C(=O)C[C@@H](C(=O)N(C)[C@@H](CC(C)C)C(=O)N[C@H](C(=O)N(C)[C@@H](CC(C)C)C(=O)N[C@@H](C)C(=O)N2CCCCC2)[C@@H](C)O)NC(=O)[C@H](C)NC1=O [DP-581] ([NMeA]T[NMeA][NMeV]F[Sar][NMeL]IAD[NMeL]T[NMeL]A-Piperidide; lactam N-10) | 2.7 | 7 | 
17 | CC(C)C[C@@H](C(=O)N[C@@H](C)C(=O)N1CCCCC1)N(C)C(=O)[C@H](C)N(C)C(=O)[C@@H]1CC(=O)N[C@H](C(C)C)C(=O)N(C)[C@@H](C)C(=O)N(C)[C@@H](CC(C)C)C(=O)N(C)[C@@H](CC(C)C)C(=O)N(C)CC(=O)N(C)[C@@H](Cc2ccccc2)C(=O)N[C@@H](C)C(=O)N(C)[C@@H](Cc2ccccc2)C(=O)N(C)[C@@H](CC(C)C)C(=O)N[C@@H]([C@@H](C)O)C(=O)N1 [DP-582] ([dV][NMeA][NMeL][NMeL][Sar][NMeF]A[NMeF][NMeL]TD[NMeA][NMeL]A-Piperidide; lactam N-11) | 21 | 12 | 
18 | CC[C@H](C)[C@@H](C(=O)N[C@@H](Cc1ccccc1)C(=O)N1CCCCC1)N(C)C(=O)[C@@H]1CC(=O)N(C)[C@H](C)C(=O)N(C)[C@@H](CC(C)C)C(=O)N[C@@H](Cc2ccccc2)C(=O)N[C@@H]([C@@H](C)O)C(=O)N(C)CC(=O)N(C)[C@@H](C)C(=O)N(C)[C@@H](C(C)C)C(=O)N[C@@H](C)C(=O)N(C)[C@@H](CC(C)C)C(=O)N[C@@H](CC(C)C)C(=O)N1 [DP-583] ([dNMeA][NMeL]FT[Sar][NMeA][NMeV]A[NMeL]LD[NMeI]F-Piperidide; lactam N-11) | 25 | 27 | 
